The target of the test is T1, recombinant human androgen receptor (hAR) (Homo sapiens, UniProt P10275).
T1 construct: made in house; host or cells: Sf9 insect cells (baculovirus)
The test is described as follows: Human Androgen Receptor Binding Analysis (competitive binding vs 3H-dihydrotestosterone). To be noted: 1 nM 3H-DHT tracer, hydroxylapatite, one hour at 4° C.

Setting [1] is: hAR Binding IC50, baculovirus/Sf9 generated hAR extract.

Like-named read-outs stand apart in the source and are kept apart here.

T1 sequence (P10275 whole entry): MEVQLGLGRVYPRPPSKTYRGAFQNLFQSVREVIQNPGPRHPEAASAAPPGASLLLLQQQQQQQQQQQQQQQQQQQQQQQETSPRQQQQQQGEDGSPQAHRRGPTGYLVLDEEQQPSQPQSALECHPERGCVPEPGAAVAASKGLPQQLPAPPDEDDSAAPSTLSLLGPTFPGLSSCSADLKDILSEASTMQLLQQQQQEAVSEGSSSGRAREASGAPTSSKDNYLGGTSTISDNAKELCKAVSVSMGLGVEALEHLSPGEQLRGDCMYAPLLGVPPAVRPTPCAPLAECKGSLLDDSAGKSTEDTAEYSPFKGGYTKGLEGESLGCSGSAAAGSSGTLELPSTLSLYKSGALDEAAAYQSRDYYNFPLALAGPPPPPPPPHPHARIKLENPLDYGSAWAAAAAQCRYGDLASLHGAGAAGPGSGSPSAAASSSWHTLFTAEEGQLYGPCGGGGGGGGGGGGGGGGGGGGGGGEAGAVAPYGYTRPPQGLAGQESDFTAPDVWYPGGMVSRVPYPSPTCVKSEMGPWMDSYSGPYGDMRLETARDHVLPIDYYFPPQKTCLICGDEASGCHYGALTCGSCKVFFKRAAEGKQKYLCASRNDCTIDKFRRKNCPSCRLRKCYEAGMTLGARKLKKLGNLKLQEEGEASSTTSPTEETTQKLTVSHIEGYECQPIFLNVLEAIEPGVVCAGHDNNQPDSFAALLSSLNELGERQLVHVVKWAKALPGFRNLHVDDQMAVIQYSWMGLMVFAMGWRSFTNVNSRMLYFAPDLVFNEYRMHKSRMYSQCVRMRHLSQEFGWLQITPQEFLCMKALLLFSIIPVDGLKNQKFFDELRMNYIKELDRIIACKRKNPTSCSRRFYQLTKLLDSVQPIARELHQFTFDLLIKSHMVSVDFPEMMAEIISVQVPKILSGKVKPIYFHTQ
Protocol: The following is a brief description of the assay that determines the affinity of a compound for the recombinant human androgen receptor (hAR). Competitive binding analysis is performed on baculovirus/Sf9 generated hAR extracts in the presence or absence of differing concentrations of drug and a fixed concentration of ^3 H-dihydrotestosterone (^3 H-DHT) as tracer. […] Briefly, progressively decreasing concentrations of compounds are incubated in the presence of hAR extract (Chang et al. P.N.A.S. Vol. 89, pp. 5546-5950, 1992), hydroxylapatite and 1 nM ^3 H-DHT for one hour at 4° C. Subsequently, the binding reactions are washed three times to completely remove excess unbound ^3 H-DHT. hAR bound.
^3 H-DHT levels are determined in the presence of compounds (=competitive binding) and compared to levels bound when no competitor is present (=maximum binding). Compound binding affinity to the hAR is expressed as the concentration of compound at which one half of the maximum binding is inhibited.

As for `CCC1CCNc2cc3oc(=O)cc(C(F)(F)F)c3cc21` (racemic) [Racemate (±), Racemic 5-ethyl-4-trifluoromethyl-5,6,7,8-tetrahydro-1-oxa-8-aza-anthracen-2-one, reference compound], the concentration for half-maximal inhibition (IC50) (baculovirus/Sf9 generated hAR extract, read-out: hAR Binding IC50) is 35 nM. `CCC1CCNc2cc3oc(=O)cc(C(F)(F)F)c3cc21` (single isomer, unassigned; (+)) [(+) Enantiomer, (+)-5-Ethyl-4-trifluoromethyl-5,6,7,8-tetrahydro-1-oxa-8-aza-anthracen-2-one]: the half-inhibitory concentration (IC50) under setting [1] is 112 nM. Still for that read-out and setting: with `CCC1CCNc2cc3oc(=O)cc(C(F)(F)F)c3cc21` (single isomer, unassigned; (-)) [(-) Enantiomer, (-)-5-ethyl-4-trifluoromethyl-5,6,7,8-tetrahydro-1-oxa-8-aza-anthracen-2-one] the figure was 5 nM.
